A short description of this data set: Hygroscopicity study as per British Pharmacopoeia method. The class given is physicochemical. The procedure: Darunavir Hydrate From C was subjected to hygroscopicity study and the test was performed as per the method given in British Pharmacopoeia.
A weight change of 0.0003 g was observed which correspond to 0.06% weight change. As per the test a sample is of non-hygroscopic nature if the weight change observed is less than 0.2%.

Molecules are shown by their SMILES.

With `CC(C)CN(C[C@@H](O)[C@H](Cc1ccccc1)NC(=O)O[C@H]1CO[C@H]2OCC[C@H]21)S(=O)(=O)c1ccc(N)cc1` [darunavir hydrate Form C, (3R,3aS,6aR)-hexahydrofuro[2,3-b]furan-3-yl(1S,2R)-3-[[(4-aminophenyl)sulfonyl](isobutyl)amino]-1-benzyl-2-hydroxypropylcarbamate], the “hygroscopic nature (non-hygroscopic if weight change less than 0.2%)” value (25° C. and 85% RH, 24 hours) is reported as “non-hygroscopic”. For the same compound, the weight change reads like this: (57.6456 g exposed at 25° C. and 85% RH for 24 hours) 0.0003 g; (exposed at 25° C. and 85% RH for 24 hours) 0.06%.

Source of the values: patent publication US20150141383A1, “Darunavir Polymorph and Process for Preparation Thereof” (Cipla Limited, priority 2010, published 2015).
